Data as given in ChEMBL document CHEMBL3885881, “DrugMatrix”.

Species: Rattus norvegicus
Test: DrugMatrix - Regimen: Daily Repeat
Assay type: toxicity, organism-based, Sprague-Dawley
Parameters: regimen Daily Repeat, gender Male, age 6-8 weeks
Details: in vivo, po, 1100 mg/kg, route oral GAVAGE, dose level High, […]; for ABSOLUTE BASOPHIL / ABSOLUTE EOSINOPHIL / ABSOLUTE LYMPHOCYTE / ABSOLUTE MONOCYTE / ABSOLUTE SEGMENTED NEUTROPHIL / BASOPHIL / EOSINOPHIL / ERYTHROCYTE COUNT / HEMATOCRIT / HEMOGLOBIN / LEUKOCYTE COUNT / LYMPHOCYTE / MEAN CORPUSCULAR HEMOGLOBIN / MEAN CORPUSCULAR HEMOGLOBIN CONCENTRATION / MEAN CORPUSCULAR VOLUME / MONOCYTE / NEUTROPHIL / NUCLEATED RED BLOOD CELLS / PLATELET COUNT: tissue Blood; for ALANINE AMINOTRANSFERASE / ALBUMIN / ALKALINE PHOSPHATASE / ASPARTATE AMINOTRANSFERASE / BLOOD UREA NITROGEN / CARBON DIOXIDE / CHLORIDE / CHOLESTEROL / CREATINE PHOSPHOKINASE / CREATININE / GLUCOSE / LACTATE DEHYDROGENASE / LIPASE / PHOSPHORUS / POTASSIUM / SODIUM / TOTAL BILIRUBIN / TOTAL PROTEIN / URIC ACID: tissue Plasma

CCOC(=O)c1ccc(N)cc1 [BENZOCAINE]
ABSOLUTE BASOPHIL (72 h, time 3 day): 0 CELLS/uL | ABSOLUTE EOSINOPHIL (72 h, time 3 day): 55.33 CELLS/uL | ABSOLUTE LYMPHOCYTE (72 h, time 3 day): 17429 CELLS/uL | ABSOLUTE MONOCYTE (72 h, time 3 day): 386.67 CELLS/uL | ABSOLUTE SEGMENTED NEUTROPHIL (72 h, time 3 day): 3095.67 CELLS/uL | BASOPHIL (72 h, time 3 day): 0% | EOSINOPHIL (72 h, time 3 day): 0.33% | ERYTHROCYTE COUNT (72 h, time 3 day): 4.95 x10E6/uL | HEMATOCRIT (72 h, time 3 day): 33.3% | HEMOGLOBIN (72 h, time 3 day): 13.8 G/DL | LEUKOCYTE COUNT (72 h, time 3 day): 20.97 x10E3/uL | LYMPHOCYTE (72 h, time 3 day): 81.67% | MEAN CORPUSCULAR HEMOGLOBIN (72 h, time 3 day): 27.93 pg | MEAN CORPUSCULAR HEMOGLOBIN CONCENTRATION (72 h, time 3 day): 41.43 G/DL | MEAN CORPUSCULAR VOLUME (72 h, time 3 day): 67.4 fL | MONOCYTE (72 h, time 3 day): 1.33% | NEUTROPHIL (72 h, time 3 day): 16.67% | NUCLEATED RED BLOOD CELLS (72 h, time 3 day): 0.33 /100WBC | PLATELET COUNT (72 h, time 3 day): 1424.33 x10E3/uL | ALANINE AMINOTRANSFERASE (72 h, time 3 day): 72 u/L | ALBUMIN (72 h, time 3 day): 4.03 G/DL | ALKALINE PHOSPHATASE (72 h, time 3 day): 546.33 u/L | ASPARTATE AMINOTRANSFERASE (72 h, time 3 day): 93.33 u/L | BLOOD UREA NITROGEN (72 h, time 3 day): 10.33 mg/dL | CARBON DIOXIDE (72 h, time 3 day): 31 mmol/L | CHLORIDE (72 h, time 3 day): 104.33 MEQ/L | CHOLESTEROL (72 h, time 3 day): 61 mg/dL | CREATINE PHOSPHOKINASE (72 h, time 3 day): 361.67 u/L | CREATININE (72 h, time 3 day): 0.14 mg/dL | GLUCOSE (72 h, time 3 day): 138.67 mg/dL | LACTATE DEHYDROGENASE (72 h, time 3 day): 171 u/L | LIPASE (72 h, time 3 day): 11.33 u/L | PHOSPHORUS (72 h, time 3 day): 11.13 mg/dL | POTASSIUM (72 h, time 3 day): 6.37 MEQ/L | SODIUM (72 h, time 3 day): 144.8 MEQ/L | TOTAL BILIRUBIN (72 h, time 3 day): 0.3 mg/dL | TOTAL PROTEIN (72 h, time 3 day): 5.57 G/DL | URIC ACID (72 h, time 3 day): 1.27 mg/dL | ABSOLUTE BASOPHIL (120 h, time 5 day): 0 CELLS/uL | ABSOLUTE EOSINOPHIL (120 h, time 5 day): 0 CELLS/uL | ABSOLUTE LYMPHOCYTE (120 h, time 5 day): 14423.33 CELLS/uL | ABSOLUTE MONOCYTE (120 h, time 5 day): 145 CELLS/uL | ABSOLUTE SEGMENTED NEUTROPHIL (120 h, time 5 day): 2531.67 CELLS/uL | BASOPHIL (120 h, time 5 day): 0% | EOSINOPHIL (120 h, time 5 day): 0% | ERYTHROCYTE COUNT (120 h, time 5 day): 4.51 x10E6/uL | HEMATOCRIT (120 h, time 5 day): 32.4% | HEMOGLOBIN (120 h, time 5 day): 13.97 G/DL | LEUKOCYTE COUNT (120 h, time 5 day): 17.1 x10E3/uL | LYMPHOCYTE (120 h, time 5 day): 84.33% | MEAN CORPUSCULAR HEMOGLOBIN (120 h, time 5 day): 31.07 pg | MEAN CORPUSCULAR HEMOGLOBIN CONCENTRATION (120 h, time 5 day): 43.13 G/DL | MEAN CORPUSCULAR VOLUME (120 h, time 5 day): 71.97 fL | MONOCYTE (120 h, time 5 day): 1% | NEUTROPHIL (120 h, time 5 day): 14.67% | NUCLEATED RED BLOOD CELLS (120 h, time 5 day): 1.33 /100WBC | PLATELET COUNT (120 h, time 5 day): 1244.67 x10E3/uL | ALANINE AMINOTRANSFERASE (120 h, time 5 day): 56.67 u/L | ALBUMIN (120 h, time 5 day): 4.2 G/DL | ALKALINE PHOSPHATASE (120 h, time 5 day): 347.67 u/L | ASPARTATE AMINOTRANSFERASE (120 h, time 5 day): 84 u/L | BLOOD UREA NITROGEN (120 h, time 5 day): 13.33 mg/dL | CARBON DIOXIDE (120 h, time 5 day): 32.67 mmol/L | CHLORIDE (120 h, time 5 day): 102.33 MEQ/L | CHOLESTEROL (120 h, time 5 day): 58 mg/dL | CREATINE PHOSPHOKINASE (120 h, time 5 day): 180 u/L | CREATININE (120 h, time 5 day): 0.13 mg/dL | GLUCOSE (120 h, time 5 day): 145.33 mg/dL | LACTATE DEHYDROGENASE (120 h, time 5 day): 146.67 u/L | LIPASE (120 h, time 5 day): 11 u/L | PHOSPHORUS (120 h, time 5 day): 11.13 mg/dL | POTASSIUM (120 h, time 5 day): 6.79 MEQ/L | SODIUM (120 h, time 5 day): 143.83 MEQ/L | TOTAL BILIRUBIN (120 h, time 5 day): 0.37 mg/dL | TOTAL PROTEIN (120 h, time 5 day): 5.9 G/DL | URIC ACID (120 h, time 5 day): 1.53 mg/dL
